In PMC10746212 (mBio, 2023):

Target: T1, MdrA (rMdrA) (Brucella abortus, UniProt Q2YN99)
T1 construct: gene BAB1_0783
Conditions: 192 bp btaE promoter fragment, rMucR present, pH 7.4, room temperature; inhibitor of MdrA displacement activity; no direct binding measured

T1 sequence (Q2YN99 1-199 limits assumed): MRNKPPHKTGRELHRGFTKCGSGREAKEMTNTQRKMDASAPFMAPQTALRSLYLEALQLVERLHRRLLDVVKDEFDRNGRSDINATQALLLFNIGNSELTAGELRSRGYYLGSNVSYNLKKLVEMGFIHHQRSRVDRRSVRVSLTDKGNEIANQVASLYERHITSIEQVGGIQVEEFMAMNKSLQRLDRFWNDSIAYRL

C[C@H](CCC(=O)O)[C@H]1CC[C@H]2[C@@H]3CC[C@@H]4C[C@H](O)CC[C@]4(C)[C@H]3C[C@H](O)[C@]12C [deoxycholate]
EMSA, displacement of MucR from 32P-labelled btaE promoter DNA by rMdrA: MdrA can no longer displace MucR from the btaE promoter when deoxycholate
